Data published in article PMC5011342, “A high throughput drug screening assay to identify compounds that promote oligodendrocyte differentiation using acutely dissociated and purified oligodendrocyte precursor cells” (BMC Research Notes, 2016).
Where two headings read alike, the source gives them in different places.

Assays:
expanded OPCs = assay: cells; conditions: for viability at 0.1 µM / viability at 1 µM / viability at 10 µM: Rattus norvegicus, 72 h
Procedure, shortened: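 Toxicity screen: compounds added at 0.1, 1 and 10 µM to PDGF-AA-expanded OPCs in 96-well plates, 3-day incubation at 37 °C, 10% CO2, then alamarBlue 1:10 for 4 h with fluorescence readout. Results set screening doses of 10/2, 2/0.4 or 0.4/0.08 µM.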

[1] = system: acutely dissociated and purified rat OPCs; assay: Acute OL differentiation assay (MBP expression/cell, immunofluorescent image quantification); format: cell-based; conditions: sheet "All OLga data"; for activation at 2 µM / activation at 10 µM / activation at 0.4 µM: Rattus norvegicus
Procedure, shortened: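 This acute differentiation assay used purified rat OPCs from postnatal day 6–7 pups, seeded into PDL/laminin-coated 96-well plates in differentiation medium lacking PDGF and FGF. Compounds were applied in quadruplicate after a 1–2 h preincubation at 37 °C, 10 % CO2, with 0.1 % DMSO negative and 40 ng/ml T3 positive controls in eight wells. After fixation on DIV4, anti-MBP immunofluorescence images yielded MBP expression/cell.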

[2] = alamarBlue viability of expanded OPCs, compound at 0.1 µM, relative to DMSO control
[3] = alamarBlue viability of expanded OPCs, compound at 1 µM, relative to DMSO control
[4] = alamarBlue viability of expanded OPCs, compound at 10 µM, relative to DMSO control
[5] = test compound at 2 uM, MBP expression relative to quetiapine, NCC library screen, read-out: 2 uM (% Quet)
[6] = test compound at 10 uM, MBP expression relative to quetiapine, NCC library screen, read-out: 10 uM (% Quet)
[7] = test compound at 2 uM, NCC library screen, relative to quetiapine, read-out: 2 uM (% Quet)
[8] = test compound at 10 uM, NCC library screen, relative to quetiapine, read-out: 10 uM (% Quet)
[9] = read-out: 0.1 µM (% DMSO), alamarBlue viability of expanded OPCs, compound at 0.1 µM, sheet All Tox data
[10] = read-out: 1 µM (% DMSO), alamarBlue viability of expanded OPCs, compound at 1 µM, sheet All Tox data
[11] = read-out: 10 µM (% DMSO), alamarBlue viability of expanded OPCs, compound at 10 µM, sheet All Tox data
[12] = 2 uM test compound, relative to quetiapine, read-out: OL differentiation, 2 uM (% Quet)
[13] = 10 uM test compound, relative to quetiapine, read-out: OL differentiation, 10 uM (% Quet)
[14] = test compound at 0.4 uM, NCC library screen, relative to quetiapine, read-out: 0.4 uM (% Quet)
[15] = read-out: 0.1 µM (% DMSO), alamarBlue viability, NCC library compound at 0.1 µM, sheet "All Tox data"
[16] = read-out: 1 µM (% DMSO), alamarBlue viability, NCC library compound at 1 µM, sheet "All Tox data"
[17] = read-out: 10 µM (% DMSO), alamarBlue viability, NCC library compound at 10 µM, sheet "All Tox data"

Compound | 0.1 µM (% DMSO) (expanded OPCs; [2]) | 1 µM (% DMSO) (expanded OPCs; [3]) | 10 µM (% DMSO) (expanded OPCs; [4]) | activation at 2 µM [1, 5] | activation at 10 µM [1, 6] | activation at 2 µM [1, 12] | activation at 10 µM [1, 13] | further results
Cn1cc[nH]c1=S [Methimazole] | 88.3 % DMSO | 90.9 % DMSO | 85.4 % DMSO | -0.16% | -20.4% | – | – | –
COc1ccccc1OCC(O)COC(N)=O (stereo not drawn) [Methocarbamol] | 89.9 % DMSO | 92.3 % DMSO | 88.1 % DMSO | – | – | – | – | activation at 2 µM [1, 7]: 2.8%; activation at 10 µM [1, 8]: -3.7%
CN(Cc1cnc2nc(N)nc(N)c2n1)c1ccc(C(=O)N[C@@H](CCC(=O)O)C(=O)O)cc1 [Methotrexate] | – | – | – | – | – | 4.9% | – | viability at 0.1 µM (expanded OPCs; [9]): 77.9%; viability at 1 µM (expanded OPCs; [10]): 68.5%; viability at 10 µM (expanded OPCs; [11]): 52.8%; activation at 0.4 µM ([1]; 0.4 uM test compound, relative to quetiapine, read-out: OL differentiation, 0.4 uM (% Quet)): -11%
COc1c2occc2cc2ccc(=O)oc12 [Methoxsalen] | 88.8 % DMSO | 90.5 % DMSO | 85.4 % DMSO | -13.9% | -33.3% | – | – | –
C[C@](N)(Cc1ccc(O)c(O)c1)C(=O)O [Methyldopa] | 100.4 % DMSO | 86.9 % DMSO | 63.4 % DMSO | – | – | – | – | activation at 2 µM [1, 7]: -37.7%; activation at 10 µM [1, 8]: -93.8%
CC(=O)OCC(=O)[C@@]1(O)CC[C@H]2[C@@H]3C[C@H](C)C4=CC(=O)C=C[C@]4(C)[C@H]3[C@@H](O)C[C@@]21C [Methylprednisolone acetate] | 106.9 % DMSO | 104.6 % DMSO | 95.3 % DMSO | 3.6% | -59.5% | – | – | –
C[C@H]1C[C@@H]2[C@H]([C@@H](O)C[C@@]3(C)[C@H]2CC[C@]3(O)C(=O)CO)[C@@]2(C)C=CC(=O)C=C12 [Methylprednisolone] | 115.7 % DMSO | 111.5 % DMSO | 102.3 % DMSO | -2.6% | -32.2% | – | – | –
C[C@]12CCC(=O)C=C1CC[C@@H]1[C@@H]2CC[C@@]2(C)[C@H]1CC[C@]2(C)O [Methyltestosterone] | – | – | – | – | – | -8.1% | -36.5% | viability at 0.1 µM (expanded OPCs; [9]): 103%; viability at 1 µM (expanded OPCs; [10]): 112%; viability at 10 µM (expanded OPCs; [11]): 102%
CCN(CC)CCNC(=O)c1cc(Cl)c(N)cc1OC [Metoclopramide] | 108.4 % DMSO | 109.6 % DMSO | 116.8 % DMSO | – | – | – | – | activation at 2 µM [1, 7]: -21.4%; activation at 10 µM [1, 8]: -26.2%
Cc1ncc([N+](=O)[O-])n1CCO [Metronidazole] | – | – | – | – | – | 0.09% | 24.8% | viability at 0.1 µM (expanded OPCs; [9]): 84.6%; viability at 1 µM (expanded OPCs; [10]): 88.7%; viability at 10 µM (expanded OPCs; [11]): 79.3%
CC(C)(C(=O)c1cccnc1)c1cccnc1 [Metyrapone] | 90.5 % DMSO | 94.0 % DMSO | 93.4 % DMSO | 9.9% | -15% | – | – | –
CC[C@H](C)C(=O)O[C@H]1CCC=C2C=C[C@H](C)[C@H](CC[C@@H]3C[C@@H](O)CC(=O)O3)[C@H]21 [Mevistatin] | – | – | – | – | – | – | – | 0.1 µM (% DMSO) (expanded OPCs; alamarBlue viability, NCC library compound at 0.1 µM, sheet "All Tox data"): 135.8 % DMSO; 1 µM (% DMSO) (expanded OPCs; alamarBlue viability, NCC library compound at 1 µM, sheet "All Tox data"): 96.3 % DMSO; 10 µM (% DMSO) (expanded OPCs; alamarBlue viability, NCC library compound at 10 µM, sheet "All Tox data"): 54.8 % DMSO; 0.4 uM (% Quet) ([1]; test compound at 0.4 uM, NCC library screen, relative to quetiapine): -87.3 % Quet; 2 uM (% Quet) ([1]; test compound at 2 uM, NCC library screen, relative to quetiapine): -111.9 % Quet
Cc1cccc(C)c1OCC(C)N (stereo not drawn) [Mexiletine] | 91.7 % DMSO | 86.5 % DMSO | 72.1 % DMSO | -15.2% | -7.4% | – | – | –
Clc1ccc(COC(Cn2ccnc2)c2ccc(Cl)cc2Cl)c(Cl)c1 (stereo not drawn) [Miconazole] | 91.9 % DMSO | 108.6 % DMSO | 9.2 % DMSO | – | – | – | – | activation at 0.4 µM [1, 14]: 43.2%
Cc1ncc2n1-c1ccc(Cl)cc1C(c1ccccc1F)=NC2 [Midazolam] | – | – | – | – | – | -15.2% | -81.7% | viability at 0.1 µM (expanded OPCs; [9]): 91%; viability at 1 µM (expanded OPCs; [10]): 99.9%; viability at 10 µM (expanded OPCs; [11]): 128%
CCC(=O)O[C@@H]1CC(=O)O[C@H](C)C/C=C/C=C/[C@H](O)[C@H](C)C[C@H](CC=O)[C@H](O[C@@H]2O[C@H](C)[C@@H](O[C@H]3C[C@@](C)(O)[C@@H](OC(=O)CC)[C@H](C)O3)[C@H](N(C)C)[C@H]2O)[C@H]1OC [Midecamycin] | – | – | – | – | – | -0.9% | -11.3% | viability at 0.1 µM (expanded OPCs; [9]): 92.7%; viability at 1 µM (expanded OPCs; [10]): 95.7%; viability at 10 µM (expanded OPCs; [11]): 91.2%
COc1ccc(OC)c(C(O)CNC(=O)CN)c1 (stereo not drawn) [Midodrine] | 90.8 % DMSO | 88.9 % DMSO | 89.1 % DMSO | – | – | – | – | activation at 2 µM [1, 7]: -2.5%; activation at 10 µM [1, 8]: 6.3%
CC#C[C@]1(O)CC[C@H]2[C@@H]3CCC4=CC(=O)CCC4=C3[C@@H](c3ccc(N(C)C)cc3)C[C@@]21C [Mifepristone] | – | – | – | – | – | – | – | viability at 0.1 µM (expanded OPCs; [15]): 84.5%; viability at 1 µM (expanded OPCs; [16]): 71.3%; viability at 10 µM (expanded OPCs; [17]): 26.4%; activation at 0.4 µM [1, 14]: -2.7%; activation at 2 µM [1, 7]: -139%
OCCN1C[C@H](O)[C@@H](O)[C@H](O)[C@H]1CO [Miglitol] | – | – | – | – | – | 13.5% | -3.3% | viability at 0.1 µM (expanded OPCs; [9]): 90.6%; viability at 1 µM (expanded OPCs; [10]): 92.6%; viability at 10 µM (expanded OPCs; [11]): 90.3%
CCN(CC)C(=O)C1(c2ccccc2)CC1CN (stereo not drawn) [Milnacipran] | – | – | – | – | – | -17.2% | -8.5% | viability at 0.1 µM (expanded OPCs; [15]): 88.4%; viability at 1 µM (expanded OPCs; [16]): 85.1%; viability at 10 µM (expanded OPCs; [17]): 71.2%
Cc1[nH]c(=O)c(C#N)cc1-c1ccncc1 [Milrinone] | – | – | – | – | – | 5.1% | -2.1% | viability at 0.1 µM (expanded OPCs; [15]): 87.2%; viability at 1 µM (expanded OPCs; [16]): 85.8%; viability at 10 µM (expanded OPCs; [17]): 79.6%
CN(C)c1ccc(O)c2c1C[C@H]1C[C@H]3[C@H](N(C)C)C(O)=C(C(N)=O)C(=O)[C@@]3(O)C(O)=C1C2=O [Minocycline] | 90.1 % DMSO | 90.9 % DMSO | 83.5 % DMSO | – | – | – | – | activation at 2 µM [1, 7]: 10.9%; activation at 10 µM [1, 8]: -13.3%
Nc1cc(N2CCCCC2)nc(N)[n+]1[O-] [Minoxidil] | 93.0 % DMSO | 102.8 % DMSO | 89.5 % DMSO | 13.4% | -4.2% | – | – | –
